Data from paper PMC12396409, “Screening and hit evaluation of a microbial metabolite library against the pathogenic Plasmodium falciparum and Toxoplasma gondii parasites” (International Journal for Parasitology: Drugs and Drug …, 2025).
Like-named read-outs stand apart in the source and are kept apart here. Where a SMILES comes first, the peptide text is derived from it. [ ]: non-standard residue; d: D form. Aoe = N[C@@H](CCCCCC(=O)[C@@H]1CO1)C(=O)O

Columns and labels:
[1] = system: P. falciparum 3D7 parasites; experiment: P. falciparum growth inhibition assay, 1-cycle (72 h treatment), SYBR DNA staining (library screen at 2 μg/mL and dose-response); type: cell-based, Plasmodium falciparum; details: for activity at 2 µg/mL: Plasmodium falciparum, 3D7, 72 h
[2] = system: P. falciparum 3D7 parasites; experiment: P. falciparum growth inhibition assay, 2-cycle (120 h treatment), delayed-death screen and dose-response; type: cell-based, Plasmodium falciparum; details: 120 h; for activity at 2 µg/mL: Plasmodium falciparum, 3D7, 120 h
[3] = system: T. gondii RH strain (RH-Tub-eYFP) tachyzoites; experiment: microbe, parasite or virus in culture; type: cell-based, Toxoplasma gondii; details: for Tg_72h_%Growth_Rep1 / Tg_72h_%Growth_Rep2 / percent parasite growth at 2 µg/mL: 72 h; for percent parasite growth at 2 µg/mL: Toxoplasma gondii
[4] = P. falciparum, 72 h, screen at 2 μg/mL, replicate 1
[5] = P. falciparum, 72 h, screen at 2 μg/mL, replicate 2
[6] = active against the parasite at 2 μg/mL, no anti-tumour (NS-1) or cytotoxic (fibroblast) activity at 5 μg/mL
[7] = P. falciparum, screen at 2 μg/mL, replicate 1
[8] = P. falciparum, screen at 2 μg/mL, replicate 2
[9] = T. gondii, screen at 2 μg/mL, replicate 1
[10] = T. gondii, screen at 2 μg/mL, replicate 2
[11] = library screen at 2 μg/mL, 72 h, % growth, replicate 1
[12] = library screen at 2 μg/mL, 72 h, % growth, replicate 2
[13] = library screen at 2 μg/mL, % growth, replicate 1
[14] = library screen at 2 μg/mL, % growth, replicate 2

Compound: C=C1[C@@H](C)[C@H]2[C@H](Cc3ccccc3)NC(=O)[C@]23[C@H](O)/C=C/[C@](C)(O)C[C@@H](C)C/C=C/[C@H]3[C@@H]1O [cytochalasin J]
- Pf_72h_%Growth_Rep1 [1, 4]: 6.03%
- Pf_72h_%Growth_Rep2 [1, 5]: 6.00%
- selectivity for P. falciparum in the screens [1, 6]: active selectively against P. falciparum and T. gondii
- Pf_120h_%Growth_Rep1 [2, 7]: 0.52%
- Pf_120h_%Growth_Rep2 [2, 8]: -0.13%
- Tg_72h_%Growth_Rep1 [3, 9]: 4.83%
- Tg_72h_%Growth_Rep2 [3, 10]: 6.80%
- selectivity for T. gondii in the screens [3, 6]: active selectively against P. falciparum and T. gondii

Compound: C/C=C/C[C@@H](C)[C@@H](O)[C@H]1C(=O)N[C@@H]([C@@H](C)O)C(=O)N(C)CC(=O)N(C)[C@@H](CC(C)C)C(=O)N[C@@H](C(C)C)C(=O)N(C)[C@@H](CC(C)C)C(=O)N[C@@H](C)C(=O)N[C@H](C)C(=O)N(C)[C@@H](CC(C)C)C(=O)N(C)[C@@H](CC(C)C)C(=O)N(C)[C@@H](C(C)C)C(=O)N1C [Cyclosporin C]
- Pf_72h_%Growth_Rep1 [1, 4]: 11.25%
- Pf_72h_%Growth_Rep2 [1, 5]: 0.59%
- Pf_120h_%Growth_Rep1 [2, 7]: 31.80%
- Pf_120h_%Growth_Rep2 [2, 8]: 7.29%
- Tg_72h_%Growth_Rep1 [3, 9]: 44.04%
- Tg_72h_%Growth_Rep2 [3, 10]: 47.65%

Compound: C/C=C/[C@H]1O[C@@](O)([C@@H](C)[C@H](O)[C@H](C)[C@H]2OC(=O)/C(OC)=C/C(C)=C/[C@@H](C)[C@@H](O)[C@@H](CC)[C@@H](O)[C@H](C)C/C(C)=C/C=C/[C@@H]2OC)C[C@@H](O[C@H]2C[C@@H](O)[C@H](OC(N)=O)[C@@H](C)O2)[C@@H]1C [Concanamycin A]
- activity at 2 µg/mL ([1]; P. falciparum, 72 h, screen at 2 μg/mL, replicate 1, read-out: Pf_72h_%Growth_Rep1): 2.64%
- activity at 2 µg/mL ([1]; P. falciparum, 72 h, screen at 2 μg/mL, replicate 2, read-out: Pf_72h_%Growth_Rep2): 2.16%
- activity at 2 µg/mL ([2]; P. falciparum, screen at 2 μg/mL, replicate 1, read-out: Pf_120h_%Growth_Rep1): 0.77%
- activity at 2 µg/mL ([2]; P. falciparum, screen at 2 μg/mL, replicate 2, read-out: Pf_120h_%Growth_Rep2): 5.18%
- percent parasite growth at 2 µg/mL ([3]; T. gondii, screen at 2 μg/mL, replicate 1, read-out: Tg_72h_%Growth_Rep1): -1.66%
- percent parasite growth at 2 µg/mL ([3]; T. gondii, screen at 2 μg/mL, replicate 2, read-out: Tg_72h_%Growth_Rep2): 0.56%

Compound: CC(/C=C/C(=O)NO)=C\[C@@H](C)C(=O)c1ccc(N(C)C)cc1 [trichostatin A, reference compound]
- activity in the screen against P. falciparum ([1]; 2 μg/mL, 72 h, active = ≥80 % growth inhibition): active
- Pf_72h_%Growth_Rep1 [1, 4]: 1.39%
- Pf_72h_%Growth_Rep2 [1, 5]: -9.74%
- Pf_120h_%Growth_Rep1 [2, 7]: 8.88%
- Pf_120h_%Growth_Rep2 [2, 8]: 11.39%
- Tg_72h_%Growth_Rep1 [3, 9]: 0.84%
- Tg_72h_%Growth_Rep2 [3, 10]: 0.67%

Compound: O=C1N[C@@H](Cc2ccccc2)C(=O)N2CCC[C@@H]12 [Cyclo(L-Phe-L-Pro)]
- Pf_72h_%Growth_Rep1 [1, 4]: 92.82%
- Pf_72h_%Growth_Rep2 [1, 5]: 90.35%
- Pf_120h_%Growth_Rep1 [2, 7]: 82.75%
- Pf_120h_%Growth_Rep2 [2, 8]: 99.85%
- Tg_72h_%Growth_Rep1 [3, 9]: 128.14%
- Tg_72h_%Growth_Rep2 [3, 10]: 102.31%

Compound: C[C@@H]1NC(=O)[C@H](CCCCCC(=O)[C@@H]2CO2)NC(=O)[C@H]2CCCN2C(=O)[C@H](Cc2ccccc2)NC1=O [Alaninechlamydocin, 1-] (cyclo(AF[dP][Aoe]))
- Pf_72h_%Growth_Rep1 [1, 11]: 2.42%
- Pf_72h_%Growth_Rep2 [1, 12]: 0.98%
- Pf_120h_%Growth_Rep1 [2, 13]: 12.83%
- Pf_120h_%Growth_Rep2 [2, 14]: -6.34%
- Tg_72h_%Growth_Rep1 [3, 13]: 2.60%
- Tg_72h_%Growth_Rep2 [3, 14]: 2.26%

Compound: CC[C@@H](O)[C@@](C)(O)[C@@H]1OC(=O)[C@H](C)[C@@H](O[C@H]2C[C@@](C)(OC)[C@@H](O)[C@H](C)O2)[C@H](C)[C@@H](O[C@@H]2O[C@H](C)C[C@H](N(C)C)[C@H]2O)[C@@]2(C)CC(C)=C(O2)[C@@H]1C [Pseudoerythromycin A enol ether]
- Pf_72h_%Growth_Rep1 ([1]; P. falciparum, 72 h, parasite screen 2 μg/mL, % growth, replicate 1): 72.76%
- Pf_72h_%Growth_Rep2 ([1]; P. falciparum, 72 h, parasite screen 2 μg/mL, % growth, replicate 2): 82.73%
- Pf_120h_%Growth_Rep1 ([2]; P. falciparum, parasite screen 2 μg/mL, % growth, replicate 1): 72.95%
- Pf_120h_%Growth_Rep2 ([2]; P. falciparum, parasite screen 2 μg/mL, % growth, replicate 2): 110.79%
- Tg_72h_%Growth_Rep1 ([3]; T. gondii, parasite screen 2 μg/mL, % growth, replicate 1): 127.77%
- Tg_72h_%Growth_Rep2 ([3]; T. gondii, parasite screen 2 μg/mL, % growth, replicate 2): 87.62%

Compound: C/C=C/[C@@H]1C=C[C@@H]2C[C@H](C)CC[C@H]2[C@]1(C)/C(O)=C1/C(=O)[C@H](CO)N(C)C1=O [Equisetin]
- Pf_72h_%Growth_Rep1 [1, 11]: 83.58%
- Pf_72h_%Growth_Rep2 [1, 12]: 91.13%
- Pf_120h_%Growth_Rep1 [2, 13]: 83.53%
- Pf_120h_%Growth_Rep2 [2, 14]: 117.48%
- Tg_72h_%Growth_Rep1 [3, 13]: 89.36%
- Tg_72h_%Growth_Rep2 [3, 14]: 86.41%
